This passage reports IC50 results from patent publication US9902733B2, “Furopyridines as inhibitors of protein kinases” (MASARYKOVA UNIVERZITA, priority 2014, dated 2018).

SMILES strings stand for the structures. Read-outs that look alike come from different tables or passages of the source.

Holding throughout (format): biochemical
For one assay, the target named is T1, HIPK1(h) (Homo sapiens, UniProt Q86Z02).
T1 construct: purchased Merck Millipore (KinaseProfiler service)
Briefly: HIPK1 KinaseProfiler radiometric protein kinase assay. To be noted: 45 μM ATP, 40 minutes at room temperature. On the procedure:
(§1) In vitro essays were performed by the company Merck Millipore in their KinaseProfiler radiometric protein kinase assay as paid commercial service. The compounds IC50 values for inhibition of individual protein kinases were determined. Dose-response curves were plotted from inhibition data generated, each in duplicate, from 10 point serial dilutions of inhibitory compounds. Concentration of compound was plotted against % kinase activity. To generate IC50 values, the dose-response curves were fitted to a standard sigmoidal curve and IC50 values were derived by standard nonlinear regression analysis.
(§2) All tested compounds were prepared in 100% DMSO to final assay concentrations either 0.5 mM (for the concentration row A, see below) or 0.05 mM (for the concentration row B). This working stock of the compound was added to the assay well as the first component in the reaction, followed by the remaining components as detailed below. The stock solution was added to the individual assay wells in such amounts that the concentrations of the compound were either in the row A (0.001 μM, 0.003 μM, 0.01 μM, 0.03 μM, 0.1 μM, 0.3 μM, 1.0 μM, 3.0 μM, and 10.0 μM) or in the row B (0.0001 μM, 0.0003 μM, 0.001 μM, 0.003 μM, 0.01 μM, 0.03 μM, 0.1 μM, 0.3 μM, and 1.0 μM). There was no pre-incubation step between the compound and the kinase prior to initiation of the reaction.
(§3) The positive control wells contained all components of the reaction, except the compound of interest; however, DMSO (at a final concentration of 2%) was included in these wells to control for solvent effects. The blank wells contained all components of the reaction, with staurosporine as a reference inhibitor replacing the compound of interest. This abolished kinase activity and established the base-line (0% kinase activity remaining).
HIPK1(h) was diluted in the buffer (20 mM MOPS, 1 mM EDTA, 0.01% Brij-35, 5% Glycerol, 0.1% β-mercaptoethanol, 1 mg/mL BSAs) to the concentration of 1.01 mg/mL prior to addition to the reaction mix.
(§4) The above stock solution of HIPK1(h) was added to a mixture containing 8 mM MOPS pH 7.0, 0.2 mM EDTA, and 0.33 mg/mL myelin basic protein in such amount that the resulting concentration of HIPK1(h) was 4.7 nM. This mixture was added to the stock solution of the tested compound. The reaction was initiated by the addition of the MgATP mix in such amount that the resulting concentration of Mg acetate in the reaction mixture was 10 mM and [γ-^33P-ATP] (specific activity approx. 500 cpm/pmol) was 45 μM. After incubation for 40 minutes at room temperature, the reaction was stopped by the addition of 3% phosphoric acid solution. 10 μL of the reaction was then spotted onto a P30 filtermat and washed three times for 5 minutes in 75 mM phosphoric acid and once in methanol prior to drying and scintillation counting.

The next assay concerns the target T2, CLK2 (h) (Homo sapiens, UniProt P49760).
T2 construct: purchased Merck Millipore (KinaseProfiler service)
Briefly: CLK2 KinaseProfiler radiometric protein kinase assay. As for the experimental part: as §1, §2, §3
CLK2 (h) was diluted in the buffer (20 mM MOPS (3-(N-morpholino)propanesulfonic acid), 1 mM EDTA (ethylendiaminotetraacetic acid), 0.01% Brij-35 (detergent), 5% Glycerol, 0.1% β-mercaptoethanol, 1 mg/mL BSAs) to the concentration of 1.01 mg/mL prior to addition to the reaction mix.
as §4, with “CLK2(h)” for “HIPK1(h)”, “20 μM […](p) EDEEE” for “0.33 mg/mL myelin basic protein”, “2.1” for “4.7”, “15” for “45”

Another assay deals with T3, DYRK2 (Homo sapiens, UniProt Q92630).
T3 construct: purchased Merck Millipore (KinaseProfiler service)
T3 sequence (Q92630 1-601): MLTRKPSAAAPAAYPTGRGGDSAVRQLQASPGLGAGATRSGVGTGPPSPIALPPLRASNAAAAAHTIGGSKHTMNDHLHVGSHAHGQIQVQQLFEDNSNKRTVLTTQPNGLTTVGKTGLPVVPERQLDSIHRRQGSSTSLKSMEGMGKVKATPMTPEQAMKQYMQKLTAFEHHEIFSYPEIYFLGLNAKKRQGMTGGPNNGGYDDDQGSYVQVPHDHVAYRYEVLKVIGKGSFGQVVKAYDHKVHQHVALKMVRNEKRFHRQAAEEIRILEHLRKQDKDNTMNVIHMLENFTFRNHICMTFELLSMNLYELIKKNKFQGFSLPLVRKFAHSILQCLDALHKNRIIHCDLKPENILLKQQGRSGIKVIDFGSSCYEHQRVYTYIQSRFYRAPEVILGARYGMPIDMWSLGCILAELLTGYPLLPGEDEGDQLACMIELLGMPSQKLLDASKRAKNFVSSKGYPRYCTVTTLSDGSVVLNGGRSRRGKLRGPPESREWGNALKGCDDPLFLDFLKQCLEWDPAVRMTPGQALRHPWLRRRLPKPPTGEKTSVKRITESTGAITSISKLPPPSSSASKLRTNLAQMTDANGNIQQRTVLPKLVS
Briefly: DYRK2 KinaseProfiler radiometric protein kinase assay. On the procedure: as §1, §2, §3

Another assay concerns the target T4, HIPK2(h) (Homo sapiens, UniProt Q9H2X6).
T4 construct: purchased Merck Millipore (KinaseProfiler service)
Briefly: HIPK2 KinaseProfiler radiometric protein kinase assay. The settings on record: 10 μM ATP, 40 minutes at room temperature. On the procedure: as §1, §2, §3
HIPK2(h) was diluted in the buffer (20 mM MOPS, 1 mM EDTA, 0.01% Brij-35, 5% Glycerol, 0.1% β-mercaptoethanol, 1 mg/mL BSAs) to the concentration of 1.01 mg/mL prior to addition to the reaction mix.
as §4, with “HIPK2(h)” for “HIPK1(h)”, “1.4” for “4.7”, “10” for “45”

The target of a further assay is T5, CLK4 (h) (Homo sapiens, UniProt Q9HAZ1).
T5 construct: purchased Merck Millipore (KinaseProfiler service)
T5 sequence (Q9HAZ1 whole entry): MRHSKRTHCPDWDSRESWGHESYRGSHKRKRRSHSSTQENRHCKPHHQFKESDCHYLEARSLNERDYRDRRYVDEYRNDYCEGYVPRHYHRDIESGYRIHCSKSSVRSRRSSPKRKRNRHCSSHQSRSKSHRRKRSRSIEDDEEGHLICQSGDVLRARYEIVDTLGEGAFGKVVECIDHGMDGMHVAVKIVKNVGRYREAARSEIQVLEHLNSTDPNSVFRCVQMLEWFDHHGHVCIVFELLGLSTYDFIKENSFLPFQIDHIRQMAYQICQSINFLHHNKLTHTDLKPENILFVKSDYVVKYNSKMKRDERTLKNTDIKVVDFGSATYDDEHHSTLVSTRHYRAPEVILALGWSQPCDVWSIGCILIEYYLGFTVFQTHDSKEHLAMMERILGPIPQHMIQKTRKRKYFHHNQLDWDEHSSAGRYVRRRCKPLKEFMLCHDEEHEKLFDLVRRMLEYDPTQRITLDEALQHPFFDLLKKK
Briefly: CLK4 KinaseProfiler radiometric protein kinase assay. The settings on record: 15 μM ATP, 40 minutes at room temperature. As for the experimental part: as §1, §2, §3
CLK4 (h) was diluted in the buffer (20 mM MOPS, 1 mM EDTA, 0.01% Brij-35, 5% Glycerol, 0.1% β-mercaptoethanol, 1 mg/mL BSAs) to the concentration of 1.01 mg/mL prior to addition to the reaction mix.
as §4, with “CLK4(h)” for “HIPK1(h)”, “200 μM […](p) EDEEE” for “0.33 mg/mL myelin basic protein”, “140.8” for “4.7”, “15” for “45”

[1] abbreviates: radiometric, 15 μM ATP, 40 minutes at room temperature, read-out: CLK2 IC50.

T1 sequence (Q86Z02 whole entry): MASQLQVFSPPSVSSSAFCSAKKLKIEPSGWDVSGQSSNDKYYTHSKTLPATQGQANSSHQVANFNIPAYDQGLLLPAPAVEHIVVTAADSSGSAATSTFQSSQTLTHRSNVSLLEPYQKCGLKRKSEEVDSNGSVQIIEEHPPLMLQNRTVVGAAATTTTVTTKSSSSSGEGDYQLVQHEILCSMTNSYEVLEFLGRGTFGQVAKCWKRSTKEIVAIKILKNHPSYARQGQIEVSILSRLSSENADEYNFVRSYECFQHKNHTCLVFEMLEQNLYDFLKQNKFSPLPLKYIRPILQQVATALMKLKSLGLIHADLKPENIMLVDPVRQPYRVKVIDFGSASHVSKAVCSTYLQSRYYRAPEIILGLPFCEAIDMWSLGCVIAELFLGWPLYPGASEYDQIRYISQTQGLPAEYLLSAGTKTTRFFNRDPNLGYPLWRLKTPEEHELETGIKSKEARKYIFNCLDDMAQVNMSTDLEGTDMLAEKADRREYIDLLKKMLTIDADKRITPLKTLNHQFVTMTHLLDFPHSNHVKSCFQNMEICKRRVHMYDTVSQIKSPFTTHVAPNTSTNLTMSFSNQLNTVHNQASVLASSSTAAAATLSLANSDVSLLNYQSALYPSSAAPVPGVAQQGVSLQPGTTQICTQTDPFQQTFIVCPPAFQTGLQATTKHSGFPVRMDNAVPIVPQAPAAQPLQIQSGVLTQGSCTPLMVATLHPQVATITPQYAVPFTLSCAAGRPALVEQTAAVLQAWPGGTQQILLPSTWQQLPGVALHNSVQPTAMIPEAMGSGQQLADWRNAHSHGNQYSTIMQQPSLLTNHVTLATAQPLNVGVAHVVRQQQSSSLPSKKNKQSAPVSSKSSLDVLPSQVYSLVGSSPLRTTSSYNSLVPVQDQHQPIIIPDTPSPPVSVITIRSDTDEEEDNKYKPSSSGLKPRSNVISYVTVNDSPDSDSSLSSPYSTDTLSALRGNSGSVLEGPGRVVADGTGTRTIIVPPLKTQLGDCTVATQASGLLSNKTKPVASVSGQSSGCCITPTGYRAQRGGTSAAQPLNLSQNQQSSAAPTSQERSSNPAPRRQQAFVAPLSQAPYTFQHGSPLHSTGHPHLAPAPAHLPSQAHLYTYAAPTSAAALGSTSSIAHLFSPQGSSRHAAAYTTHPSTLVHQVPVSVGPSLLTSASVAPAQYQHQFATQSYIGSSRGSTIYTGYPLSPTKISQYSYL
T4 sequence (Q9H2X6 whole entry): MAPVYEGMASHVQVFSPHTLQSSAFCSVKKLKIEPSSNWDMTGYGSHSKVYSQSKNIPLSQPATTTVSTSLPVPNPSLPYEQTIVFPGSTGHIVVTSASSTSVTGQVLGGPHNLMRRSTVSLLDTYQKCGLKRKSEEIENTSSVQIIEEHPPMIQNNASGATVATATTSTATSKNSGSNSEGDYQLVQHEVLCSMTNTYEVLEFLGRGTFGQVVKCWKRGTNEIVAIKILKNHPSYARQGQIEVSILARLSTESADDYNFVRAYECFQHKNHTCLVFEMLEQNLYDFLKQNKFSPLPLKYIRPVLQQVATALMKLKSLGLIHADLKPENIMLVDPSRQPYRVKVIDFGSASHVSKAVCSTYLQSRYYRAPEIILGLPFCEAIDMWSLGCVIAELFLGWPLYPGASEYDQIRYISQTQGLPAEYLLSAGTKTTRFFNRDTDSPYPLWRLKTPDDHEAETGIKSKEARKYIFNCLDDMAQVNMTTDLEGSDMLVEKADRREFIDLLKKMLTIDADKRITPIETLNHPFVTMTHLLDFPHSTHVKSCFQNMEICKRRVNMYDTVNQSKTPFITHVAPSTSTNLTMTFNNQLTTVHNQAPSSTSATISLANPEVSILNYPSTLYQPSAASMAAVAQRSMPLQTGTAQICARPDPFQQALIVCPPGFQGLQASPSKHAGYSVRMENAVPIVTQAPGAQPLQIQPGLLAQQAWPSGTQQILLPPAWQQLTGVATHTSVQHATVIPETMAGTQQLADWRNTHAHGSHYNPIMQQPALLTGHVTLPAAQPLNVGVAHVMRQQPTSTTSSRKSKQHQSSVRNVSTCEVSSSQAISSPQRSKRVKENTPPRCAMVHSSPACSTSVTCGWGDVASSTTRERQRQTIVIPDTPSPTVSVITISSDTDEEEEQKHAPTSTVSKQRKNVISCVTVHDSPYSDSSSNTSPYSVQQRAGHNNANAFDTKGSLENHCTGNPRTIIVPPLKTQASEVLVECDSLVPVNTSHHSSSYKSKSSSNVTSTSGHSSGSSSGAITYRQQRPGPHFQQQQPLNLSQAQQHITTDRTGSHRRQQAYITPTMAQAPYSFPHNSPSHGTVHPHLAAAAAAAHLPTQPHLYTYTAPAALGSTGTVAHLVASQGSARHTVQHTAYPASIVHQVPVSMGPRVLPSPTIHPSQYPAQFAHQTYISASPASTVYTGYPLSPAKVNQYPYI
T2 sequence (P49760 whole entry): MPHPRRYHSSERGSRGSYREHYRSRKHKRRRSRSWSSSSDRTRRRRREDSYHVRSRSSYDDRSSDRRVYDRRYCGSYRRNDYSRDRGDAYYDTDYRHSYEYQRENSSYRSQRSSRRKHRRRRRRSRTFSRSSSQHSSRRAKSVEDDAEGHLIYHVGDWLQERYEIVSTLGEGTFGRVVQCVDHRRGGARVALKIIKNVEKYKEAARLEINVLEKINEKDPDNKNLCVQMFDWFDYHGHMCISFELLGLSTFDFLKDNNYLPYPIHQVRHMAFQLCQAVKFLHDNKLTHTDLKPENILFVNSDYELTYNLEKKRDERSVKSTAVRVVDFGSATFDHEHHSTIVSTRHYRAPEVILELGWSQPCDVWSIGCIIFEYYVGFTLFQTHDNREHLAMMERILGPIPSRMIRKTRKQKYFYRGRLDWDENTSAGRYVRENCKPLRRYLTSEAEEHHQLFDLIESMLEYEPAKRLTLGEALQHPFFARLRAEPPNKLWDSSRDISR

As to `Cn1cc(-c2ccc3occ(-c4ccc(CO)cc4)c3n2)cn1` [Preparative Example 70], the IC50 (in general, the concentration at which inhibition is half-maximal) on HIPK1(h) was below 1000 nM; on CLK2 (h) (setting [1]), below 1000 nM; on DYRK2, below 5000 nM.
`c1ccc2cc(-c3coc4ccc(-c5cncs5)nc34)ccc2c1` [Preparative Example 7F]: the half-inhibitory concentration (IC50) at HIPK2(h) was below 100 nM; at HIPK1(h), below 1000 nM; at CLK2 (h) (setting [1]), below 1000 nM; on CLK4 (h), below 1000 nM.
Turning to `CC(C)(C)c1coc2ccc(-c3cn[nH]c3)nc12` [Preparative Example 55], the concentration for half-maximal inhibition (IC50) on CLK2 (h) (setting [1]) and at CLK4 (h) was below 1000 nM each time.
For `Cn1cc(-c2ccc3occ(-c4ccc(C(N)=O)cc4)c3n2)cn1` [Preparative Example 66], the half-maximal inhibitory concentration (IC50) on HIPK1(h) is below 1000 nM; on CLK2 (h) (setting [1]) it was below 1000 nM; at DYRK2, below 5000 nM.
Regarding `c1ccc(-c2coc3ccc(-c4cccnc4)nc23)cc1` [Preparative Example 6D], the concentration for half-maximal inhibition (IC50) against HIPK2(h) was below 5000 nM; against HIPK1(h), below 5000 nM; on CLK2 (h) (setting [1]) it was below 5000 nM; at CLK4 (h) it was below 1000 nM.
Consider `Cn1cc(-c2ccc3occc3n2)cn1` [Preparative Example 12B], for which the IC50 was below 5000 nM on CLK2 (h) (setting [1]) and below 1000 nM at CLK4 (h).
For `Cn1cc(-c2ccc3occ(-c4cccc(C(C)(C)C)c4)c3n2)cn1` [Preparative Example 74], the IC50 was below 5000 nM against HIPK1(h) and below 1000 nM on CLK2 (h) (setting [1]).
As for `Cn1cc(-c2ccc3occ(-c4ccc5cn[nH]c5c4)c3n2)cn1` [Preparative Example 65], the values for the IC50 against HIPK1(h), at CLK2 (h) (setting [1]) and against DYRK2 were below 1000 nM, below 100 nM and below 1000 nM, respectively.
As for `c1ccc2cc(-c3coc4ccc(-c5cnoc5)nc34)ccc2c1` [Preparative Example 62], the 50% inhibitory concentration (IC50) against HIPK2(h) was below 1000 nM; against HIPK1(h), below 1000 nM; at CLK2 (h) (setting [1]), below 5000 nM; on CLK4 (h) it was below 5000 nM.
For the compound `Cn1cc(-c2ccc3occ(-c4ccc(S(C)(=O)=O)cc4)c3n2)cn1` [Preparative Example 71], the IC50 at HIPK1(h) is below 5000 nM; at CLK2 (h) (setting [1]) it was below 1000 nM; against DYRK2 it was below 5000 nM.
In the case of `CC(C)n1cc(-c2ccc3occ(-c4ccc5ccccc5c4)c3n2)cn1` [Preparative Example 7C], the half-maximal inhibitory concentration (IC50) against HIPK2(h), on CLK2 (h) (setting [1]) and against CLK4 (h) was below 5000 nM throughout.
Take `CCc1coc2ccc(-c3cnn(C)c3)nc12` [Preparative Example 23]: the values for the IC50 on CLK2 (h) (setting [1]), against CLK4 (h) and against DYRK2 were below 1000 nM, below 1000 nM and below 5000 nM, respectively.
As for `Cn1cc(-c2ccc3occ(-c4ccc(-c5nnn[nH]5)cc4)c3n2)cn1` [Preparative Example 81], the IC50 on HIPK1(h), on CLK2 (h) (setting [1]) and against DYRK2 was below 5000 nM in each case.
Consider `Cc1cc2occ(-c3ccc4ccccc4c3)c2nc1-c1cnn(C)c1` [Preparative Example 80], for which, on CLK2 (h) (setting [1]), the half-maximal inhibitory concentration (IC50) was below 1000 nM.
`Cn1cc(-c2ccc3occ(-c4ccc([S+](C)[O-])cc4)c3n2)cn1` (stereo not drawn) [Preparative Example 73]: the IC50 on CLK2 (h) (setting [1]) and on DYRK2 was below 5000 nM each time.
For `Cn1cc(-c2ccc3occ(-c4cccc(-c5ccccc5)c4)c3n2)cn1` [Preparative Example 61], the 50% inhibitory concentration (IC50) against HIPK2(h) is below 100 nM; against HIPK1(h), below 1000 nM; on CLK2 (h) (setting [1]) it was below 100 nM; against CLK4 (h) it was below 100 nM; against DYRK2, below 5000 nM.
As to `CC(C)(C)c1ccc(-c2coc3ccc(-c4cn[nH]c4)nc23)cc1` [Preparative Example 54], the concentration for half-maximal inhibition (IC50) is below 1000 nM at HIPK2(h), below 1000 nM at HIPK1(h), below 5000 nM at CLK2 (h) and below 5000 nM on CLK4 (h).
